{
  "source": "patent US4010261A",
  "about": "“Method to prevent reproduction with [Des-Gly]^10 -GN-RH nonadeptide amide analogs in position” (Abbott Laboratories, priority 1974, dated 1977)",
  "key": {"[1]": {"test_system": "pregnant rats", "assay": "Implantation in pregnant rats with various compounds under Compound N (Examples 7-10)", "assay_type": "in vivo, rat", "experimental": "a) number of animals with implants/number of animals treated\nb) mean implantation sites (based on those with implantation sites)\nc) viable fetuses/total number of fetuses (successful pregnancy)\nIn this experiment, the activity of various compounds encompassed under Compound N are desmonstrated. Groups of 8 - 10 pregnant rats were injected subcutaneously b.i.d. with 0.5 ml. of the medium shown in Example 1 containing the compound and dose identified below. The results are expressed as explained in Example 2."}, "[2]": {"test_system": "rats treated with Compound N", "assay": "Exogenous estradiol given to Compound N-treated pregnant rats", "assay_type": "in vivo, rat", "settings": "estradiol 0.1 μg. s.c. in sesame oil on days 4 and 5 of gestation, rats treated with Compound N days 2-6", "experimental": "More specifically, if estradiol is subcutaneously given to rats treated with Compound N (days 2 - 6 of gestation) on days 4 and 5 of gestation at a dose of as little as 0.1 μg. each (dissolved in sesame oil), implantation already takes place in 3 of 8 animals, producing 100% viable embryos."}},
  "data": [
    {"smiles": "CCNC(=O)[C@@H]1CCCN1C(=O)[C@H](CCCNC(=N)N)NC(=O)[C@H](CC(C)C)NC(=O)[C@@H](C)NC(=O)[C@H](Cc1ccc(O)cc1)NC(=O)[C@H](CO)NC(=O)[C@H](Cc1c[nH]c2ccccc12)NC(=O)[C@H](Cc1c[nH]cn1)NC(=O)[C@@H]1CCC(=O)N1", "note": "[Example 8, L-pGlu-L-His-L-Trp-L-Ser-L-Tyr-X-L-Leu-L-Arg-L-Pro-NH-R]", "values": [
      {"measurement": "a: number of animals with implants/number of animals treated", "setting": "[1]; Dose 10 μg. s.c. b.i.d.", "value": "0/10"},
      {"measurement": "b: mean implantation sites (based on those with implantation sites)", "setting": "[1]; Dose 10 μg. s.c. b.i.d.", "value": 0},
      {"measurement": "c: viable fetuses/total number of fetuses (successful pregnancy)", "setting": "[1]; Dose 10 μg. s.c. b.i.d.", "value": 0, "unit": "%"}
    ]},
    {"smiles": "CNC(=O)[C@@H]1CCCN1C(=O)[C@H](CCCNC(=N)N)NC(=O)[C@H](CC(C)C)NC(=O)[C@@H](CC(C)C)NC(=O)[C@H](Cc1ccc(O)cc1)NC(=O)[C@H](CO)NC(=O)[C@H](Cc1c[nH]c2ccccc12)NC(=O)[C@H](Cc1c[nH]cn1)NC(=O)[C@@H]1CCC(=O)N1", "note": "[Example 10, L-pGlu-L-His-L-Trp-L-Ser-L-Tyr-X-L-Leu-L-Arg-L-Pro-NH-R]", "values": [
      {"measurement": "a: number of animals with implants/number of animals treated", "setting": "[1]; Dose 25 μg. s.c. b.i.d.", "value": "0/10"},
      {"measurement": "b: mean implantation sites (based on those with implantation sites)", "setting": "[1]; Dose 25 μg. s.c. b.i.d.", "value": 0},
      {"measurement": "c: viable fetuses/total number of fetuses (successful pregnancy)", "setting": "[1]; Dose 25 μg. s.c. b.i.d.", "value": 0, "unit": "%"}
    ]},
    {"smiles": "C[C@]12CC[C@@H]3c4ccc(O)cc4CC[C@H]3[C@@H]1CC[C@@H]2O", "note": "[estradiol]", "values": [
      {"measurement": "animals in which implantation takes place", "setting": "[2]", "value": "3 of 8"},
      {"measurement": "viable embryos", "setting": "[2]", "value": 100, "unit": "%"}
    ]}
  ]
}
